Test results from patent US10220096B2, “Injectable and stable hydrogels with dynamic properties modulated by biocompatible catalysts” (The Board of Trustees of the Leland Stanford Junior …, priority 2016, dated 2019).

Assays:
[1] = system: Human Umbilical Vein Endothelial Cells (HUVECs); test: Catalyst toxicity, MTT cell viability assay; assay type: cell-based; details: 2D culture
Description: Human Umbilical Vein Endothelial Cells (HUVECs) were obtained from Lonza. HUVECs were expanded in growth medium composed of about 10% fetal bovine serum, about 1% penicillin/streptomycin in EBM-2. The medium was changed every about 3 d and the cells were passaged at about 70% confluency. Cells were used at passage 5 or lower for all experiments.
HUVECs pre-seeded in 96-well plates at about 10^4 cells/well were incubated with catalysts 1 and 2 for about 1 h, about 4 h, about 24 h and about 72 h. Afterwards, the cells were washed with PBS, the cell viability MTT assay was carried out to determine the cell viabilities relative to the control cells incubated with the same volume of PBS.

[2] = Kinetic measurements on hydrazone exchange (model reaction, HPLC); details: for k1, rate of hydrazone formation / k−1, rate of hydrazone cleavage: PBS pH about 7.4, about 37° C.
Description: 2-(aminomethyl)benzimidazole (1 in FIG. 2) is an efficient catalyst to accelerate hydrazone formation owing to facilitated intramolecular proton transfer in the transition state. The rates for hydrazone formation (k1) and cleavage (k−1) in the presence of 1 were measured using model reactions between hydrazine and aldehyde and modeled for a reversible second-order reaction (FIG. 8), and the equilibrium constant (Keq) was calculated from these rate constants. […] The gelation time of the HA-hydrazone hydrogels was dramatically shortened in the presence of 1. […] In the presence of about 25 mM of 1, gelation occurred in less than about 60 s and reached a final plateau shear modulus of about 800 Pa in about 5 min (FIG. 3b). Increasing the catalyst loading to about 100 mM further shortened the time to reach equilibrium to about 3 min (FIG. 3b). As shown in the frequency sweep experiment (FIG. 3c), stable gels were formed with a plateau storage modulus (G′) of about 1 kPa, which is more than an order of magnitude higher than the loss modulus (G″). […] In contrast, altering the HA polymer composition from about 1 to about 4 wt. % increased the plateau modulus (FIG. 3c). […] The rate of stress relaxation under constant strain was quantified by the time for the initially measured stress to relax to half of its original value, τ1/2. […] Accelerated hydrazone exchange by an incorporated catalyst also allowed these hydrogels to be readily remolded macroscopically (FIG. 9), facilitating their injection and re-processing. […] Therefore, the design provides a strategy to tune the modulus and rate of stress relaxation, two important mechanical properties for dynamic hydrogel materials, independently and continuously by polymer concentration and catalyst concentration, respectively.
The equilibrium constant (Keq) and rate constants for hydrazone formation (k1) and cleavage (k−1) between aldehyde S1 and hydrazine S3 as model compounds with different concentrations of catalyst 1 were measured by HPLC. S3 was synthesized by coupling N-(2-aminoethyl)-4-amino-1,8-naphthalimide with hydrazine using carbodiimide chemistry. About 2 mM stock solutions of hydrazine and aldehyde were prepared in a PBS buffer (1×, pH of about 7.4). An about 250 mM stock solution of catalyst 1 was prepared in PBS as described in the previous sections.
For the reactions performed in the absence of catalyst, about 10 μL of hydrazine and about 10 μL of aldehyde stock solutions were added to about 980 μL PBS buffer (1×, pH of about 7.4). For the reactions performed in the presence of catalyst 1, the appropriate amount of catalyst 1, hydrazine, and aldehyde were sequentially added to PBS buffer (1×, pH of about 7.4) from their stock solutions, maintaining the same concentrations for hydrazine and aldehyde as those without a catalyst. The reactions were performed at about 37° C. in a water bath and followed using HPLC with detection at about 420 nm absorption (HPLC conditions: XBridge 10 μm C18 column; about 40% acetonitrile in PBS buffer (pH of about 7) isocratic elution in about 7 min at a flow rate of about 0.34 mL/min. The concentrations and conversions were calculated from the integrals of the HPLC signals. The kinetic data of hydrazone formation were fitted to a kinetic model for 2nd order reactions using Matlab (FIG. 8).
Conditions: about 137 mM NaCl, about 2.7 mM KCl, about 12 mM phosphate, pH of about 7.4 buffer, about 37° C.

[3] = Compression test, remoldability of hydrogels; assay type: physicochemical; details: hydrogel containing about 100 mM of 1
From the text: FIG. 9. Compression test showing remoldability of HA-hydrazone hydrogels was improved with the addition of a catalyst.

[4] = Rheological tests of HA-hydrazone hydrogels (time sweep, frequency sweep, stress relaxation); assay type: physicochemical; details: for τ1/2, time for stress to relax to half of its original value: about 10% strain
Description: HA-hydrazine and HA-aldehyde were first solubilized in PBS (1×, pH of about 7.4) at 5 wt. % respectively. Catalyst 1 and 2 were dissolved in PBS (1×, pH of about 7.4) and adjusted pH to about 7.4 at a stock concentration of about 250 mM. HA hydrogels were prepared by mixing HA-hydrazine, catalyst, and HA-aldehyde stock solutions successively at hydrazine to aldehyde (molar) ratio of about 1:1. The volumes of stock solutions were adjusted to make gels with different formulations.
Rheological characterization was performed on a stress-controlled rheometer (AR-G2, TA instrument) using a 20 mm cone plate. About 45 μL of a sample was loaded immediately onto the rheometer after mixing to gel in situ on the rheometer and a humidity chamber was secured in place to prevent dehydration. All the tests were performed at about 37° C. Time sweeps were performed at about 1 Hz at about 1% constant strain. Frequency sweeps were performed from about 0.1 to about 10 Hz at about 1% constant strain. Stress relaxation experiments were performed at about 10% strain.

[5] = system: HUVECs encapsulated in hydrogel; test: In vitro cell injection and quantification of viability (LIVE/DEAD); assay type: cell-based, Human; details: about 2 wt. % hydrogel with about 25 mM of 2, 28-gauge needle, about 20 min post-injection
Description: (§1) Evaluation was performed on the effect of catalyst 2 incorporated in HA-hydrazone hydrogels on the protection of encapsulated cells during injection. HUVECs were homogeneously encapsulated in about 2 wt. % hydrogels containing about 25 mM of 2 by rapidly mixing the cells suspended in HA solutions with catalyst and transferring to a syringe. Hydrogel was rapidly formed in the syringe and ejected through a 28-gauge syringe needle. A syringe pump was used for all cell injection experiments to ensure consistent flow rate for accurate comparison between all samples.
After injection, cells encapsulated in the hydrogels were incubated for about 20 min, and cell viability was then analyzed using a LIVE/DEAD staining assay.
Cell suspension was first mixed with HA-hydrazine stock solutions before further mixing with catalyst and HA-aldehyde stock solutions. All in vitro injection experiments were performed with about 30 μL gel volume containing about 3×10^4 cells. For cell injection, the final mixing stage was performed in the barrel of an about 1 mL insulin syringe fitted with a 28 gauge needle. […] Cell viability was determined using LIVE/DEAD viability/cytotoxicity kit (Invitrogen) at about 20 min post-injection and about 3 d post-injection (n=5). […] Cell numbers were quantified using ImageJ at each time point.

[6] = Catalyst diffusion out of hydrogel (UV absorption at about 281 nm); assay type: physicochemical; details: about 50 μL hydrogel in about 1 mL PBS
Description: Long-term stability of hydrogel scaffolds is often desired to provide support for cell adhesion and growth after cell injection. Rapid hydrogel erosion is a challenge for many dynamic and injectable hydrogels. It is proposed that rapid passive diffusion of the dissolved small molecule catalyst away from the hydrogel post-injection would slow down the dynamic exchange of hydrazone crosslinks and thus enhance the hydrogel stability. Therefore evaluation was performed to monitor the diffusion of 2, which was incorporated in the hydrogel at either about 25 mM or about 50 mM initial concentration, into the buffer solution after injection by monitoring its absorption at about 281 nm. After about 50 μL hydrogel was injected and immersed in about 1 mL PBS, about 60% of 2 diffused out of the hydrogel within about 1 h, and less than about 1% remained inside the gel after about 8 h (FIG. 5a). […]
(§2) HA hydrogels containing 0, about 25, and about 50 mM of catalyst 2 were prepared as described in the previous section. […] Catalyst diffusion was quantified using UV measurement by monitoring absorption at about 281 nm. HA erosion was quantified by uronic acid assay according to reported procedures.

[7] = Hydrogel erosion study (uronic acid assay); assay type: physicochemical
Description: Long-term stability of hydrogel scaffolds is often desired to provide support for cell adhesion and growth after cell injection. Rapid hydrogel erosion is a challenge for many dynamic and injectable hydrogels. It is proposed that rapid passive diffusion of the dissolved small molecule catalyst away from the hydrogel post-injection would slow down the dynamic exchange of hydrazone crosslinks and thus enhance the hydrogel stability. Therefore evaluation was performed to monitor the diffusion of 2, which was incorporated in the hydrogel at either about 25 mM or about 50 mM initial concentration, into the buffer solution after injection by monitoring its absorption at about 281 nm. After about 50 μL hydrogel was injected and immersed in about 1 mL PBS, about 60% of 2 diffused out of the hydrogel within about 1 h, and less than about 1% remained inside the gel after about 8 h (FIG. 5a). To examine whether the rapid diffusion and thus removal of catalyst can increase the long-term stability of the hydrogels, comparison is performed of the erosion rate of hydrogels with different initial concentrations of incorporated catalyst. […] Hydrogels initially containing about 25 mM or about 50 mM of catalyst 2 had erosion rates of about 3.8 and about 4.1% per day respectively, similar to those without a catalyst (FIG. 5b), presumably due to rapid diffusion of 2 out of the hydrogels. In contrast, when diffusion of 2 away from the hydrogel was prevented by immersing the hydrogel into a buffer solution containing about 25 mM of 2, the hydrogel was completely dissolved within about 12 h (FIG. 12). […]
as §2

[8] = Ejection of hydrogel through 28-gauge syringe needle (injectability); assay type: physicochemical; details: about 2 wt. % hydrogel with about 25 mM of 2
Description: as §1

[9] = about 2 wt. % HA hydrogel, about 25 mM of 1

NCc1nc2ccccc2[nH]1 [catalyst 1, 2-(aminomethyl)benzimidazole]
HUVEC cell death ([1]; about 25 mM, within several hours): Significant cell death
k1, rate of hydrazone formation ([2]; 25 mM of 1): 127 M⁻¹ s⁻¹
k−1, rate of hydrazone cleavage ([2]; 25 mM of 1): 0.00103 s⁻¹
k1, rate of hydrazone formation ([2]; 50 mM of 1): 250 M⁻¹ s⁻¹
k−1, rate of hydrazone cleavage ([2]; 50 mM of 1): 0.00203 s⁻¹
k1, rate of hydrazone formation ([2]; 100 mM of 1): 495 M⁻¹ s⁻¹
k−1, rate of hydrazone cleavage ([2]; 100 mM of 1): 0.00401 s⁻¹
enhancement of k1 ([2]; about 25 mM of 1): about 24 fold
enhancement of k−1 ([2]; about 25 mM of 1): about 24 fold
enhancement of k1 ([2]; about 50 mM of 1): about 47 fold
enhancement of k−1 ([2]; about 50 mM of 1): about 47 fold
enhancement of k1 ([2]; about 100 mM of 1): about 94 fold
enhancement of k−1 ([2]; about 100 mM of 1): about 94 fold
remoldability after pressing from about 2.4 mm to about 0.6 mm for about 5 min [3]: adopted the height of the mold
τ1/2, time for stress to relax to half of its original value ([4]; about 25 mM of 1): about 10 min
τ1/2, time for stress to relax to half of its original value ([4]; about 100 mM of 1): about 3 min
final plateau shear modulus [4, 9]: about 800 Pa
time to reach final plateau shear modulus [4, 9]: about 5 min
gelation time ([4]; about 2 wt. % HA hydrogel, about 25 mM of 1, about 37° C.): less than 60 s
time to reach equilibrium (gelation) ([4]; about 2 wt. % HA hydrogel, about 100 mM of 1): about 3 min

NCc1nc2ccccc2n1CCCS(=O)(=O)O [catalyst 2]
cell viability after injection [5]: about 87%
HUVEC cell death ([1]; about 5 mM, after about 3 days): negligible cell death
cells remaining viable ([1]; about 25 mM, about 24 h exposure): about 85%
fraction of catalyst remaining inside the gel ([6]; after about 8 h): less than 1%
fraction of catalyst diffused out of the hydrogel ([6]; within about 1 h, about 25 or 50 mM initial): about 60%
time to complete dissolution of hydrogel ([7]; hydrogel immersed in buffer containing about 25 mM of 2 (diffusion prevented)): ≤ 12 h
erosion rate ([7]; hydrogel initially containing about 25 mM of catalyst 2): about 3.8 % per day
erosion rate ([7]; hydrogel initially containing about 50 mM of catalyst 2): about 4.1 % per day
injectability through 28-gauge needle [8]: readily ejected through the thin needle without clogging
